Assay results from BindingDB's records for doi:10.1021/bi401077f (Weill Cornell Medical College, 2013).

The molecules below were run against T1, Dihydrolipoyl dehydrogenase (Mycobacterium tuberculosis (strain ATCC 25618 / H37Rv), UniProt P9WHH9) (assay: Enzyme Assays).
T1 sequence (P9WHH9 whole entry): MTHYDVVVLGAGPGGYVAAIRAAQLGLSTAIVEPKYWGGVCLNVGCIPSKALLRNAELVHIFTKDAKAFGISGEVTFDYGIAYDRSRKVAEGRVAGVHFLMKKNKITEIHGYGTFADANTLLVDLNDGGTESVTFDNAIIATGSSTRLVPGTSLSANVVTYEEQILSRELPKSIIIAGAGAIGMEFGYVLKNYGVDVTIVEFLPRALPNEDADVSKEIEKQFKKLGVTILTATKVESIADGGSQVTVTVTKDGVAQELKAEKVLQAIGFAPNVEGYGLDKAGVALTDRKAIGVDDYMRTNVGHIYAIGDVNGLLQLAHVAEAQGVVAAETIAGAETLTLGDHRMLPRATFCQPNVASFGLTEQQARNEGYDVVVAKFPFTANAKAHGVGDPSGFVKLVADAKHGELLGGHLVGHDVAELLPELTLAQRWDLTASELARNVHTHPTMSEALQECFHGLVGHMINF

How did the Ki turn out when CN(CC(=O)Nc1ccc(F)c(Cl)c1)S(=O)(=O)c1cc(Br)cnc1N [SL418] was run?
Its Ki is 0.333 µM.

Each molecule was assayed against T2, Dihydrolipoyl dehydrogenase (Mycobacterium tuberculosis (strain CDC 1551 / Oshkosh), UniProt P9WHH8) (assay: Enzyme Assays).
T2 sequence (P9WHH8 whole entry): T1 sequence (P9WHH9 whole entry)

How did the IC50 turn out when CC(C)(C)NC(=O)C(=O)NCc1cccnc1 [4031-1995] was run?
The IC50 was 100 µM.

Which IC50 does the source give for O=C(Nc1ccc(Br)cc1)C1CCC(S(=O)(=O)c2cccnc2)CC1 (stereo not drawn) [C324-0095] here?
The IC50 was > 100 µM.

Which IC50 does the source give for CC1CCCCC1NC(=O)CN(C)S(=O)(=O)c1cccc2cccnc12 (stereo not drawn) [N-(2-methylcyclohexyl)-2-[methyl(quinolin-8-ylsulfonyl)amino]acetamide] here?
Its IC50 is > 100 µM.

How did the IC50 turn out when Cc1cc(NC(=O)CN(C)S(=O)(=O)c2cc(Br)cnc2N)ccc1Br [K906-3584] was run?
The IC50 was < 0.1 µM.

CN1CCN(S(=O)(=O)c2cc(Br)cnc2N)CC1 [E138-2099] was tested. Which IC50 did it give?
Its IC50 is > 100 µM.

Nc1ncc(Br)cc1S(=O)(=O)NCCC(=O)Nc1cccc(Cl)c1 [K906-3123] was tested. Which IC50 did it give?
Its IC50 is > 100 µM.

With CCN(Cc1ccccc1)C(=O)CN(C)S(=O)(=O)c1cc(Br)cnc1N [E114-0951] as the molecule, how does the IC50 read?
The IC50 was 12.5 µM.

With CCCCN(C)C(=O)CCNS(=O)(=O)c1cc(Br)cnc1N [E199-0112] as the molecule, how does the IC50 read?
The IC50 was > 100 µM.

Which IC50 does the source give for CCCCNS(=O)(=O)c1cc(Br)cnc1N [E138-2195] here?
The IC50 was > 100 µM.

CN(Cc1ccccc1)C(=O)CN(C)S(=O)(=O)c1cc(Br)cnc1N [E144-0828] was tested. Which IC50 did it give?
Its IC50 is 34 µM.

How did the IC50 turn out when NC(=O)C(=O)NCc1cccnc1 [4031-0653] was run?
Its IC50 is 6 µM.

CN(CC(=O)Nc1ccc(F)c(Cl)c1)S(=O)(=O)c1cc(Br)cnc1N [SL418] was tested. Which Ki did it give?
Its Ki is 0.143 µM.
